Values joined by “and” are separate entries in the source; they are usually repeats but may differ in a detail not shown here. Identical values can stand only once.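 Dose response: 5 concentrations. Exposure: 48 h. Format: 96-well plates. Endpoint: linear interpolation; highest concentration if not reached. Here, GI50 denotes the concentration required for 50% inhibition of growth. TGI marks complete inhibition of growth.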
Tests used:
Test in all cases: NCI anticancer screen, dose series, 48 h
TK-10 renal = system: TK-10 renal
MALME-3M melanoma = system: MALME-3M melanoma
UACC-62 melanoma = system: UACC-62 melanoma
HCT-116 colon = system: HCT-116 colon
EKVX NSCLC = system: EKVX NSCLC
RPMI-8226 leukemia = system: RPMI-8226 leukemia
T-47D breast = system: T-47D breast
CAKI-1 renal = system: CAKI-1 renal
CCRF-CEM leukemia = system: CCRF-CEM leukemia
HOP-92 NSCLC = system: HOP-92 NSCLC
MDA-MB-435 = system: MDA-MB-435
NCI-H226 lung = system: NCI-H226 lung
A549 NSCLC = system: A549 NSCLC
HCC-2998 colon = system: HCC-2998 colon
HCT-15 colon = system: HCT-15 colon
MDA-MB-231 breast = system: MDA-MB-231 breast
UO-31 renal = system: UO-31 renal
NCI-H522 lung = system: NCI-H522 lung
SNB-75 CNS = system: SNB-75 CNS
OVCAR-4 ovarian = system: OVCAR-4 ovarian
OVCAR-5 ovarian = system: OVCAR-5 ovarian
HS 578T breast = system: HS 578T breast
UACC-257 melanoma = system: UACC-257 melanoma
SK-MEL-2 melanoma = system: SK-MEL-2 melanoma
SR leukemia = system: SR leukemia
SK-OV-3 ovarian = system: SK-OV-3 ovarian
SF-268 CNS = system: SF-268 CNS
SF-295 CNS = system: SF-295 CNS
SNB-19 CNS = system: SNB-19 CNS
KM12 colon = system: KM12 colon
A498 renal = system: A498 renal
HOP-62 NSCLC = system: HOP-62 NSCLC
HT29 colon = system: HT29 colon
K-562 leukemia = system: K-562 leukemia
NCI-H460 lung = system: NCI-H460 lung
OVCAR-3 ovarian = system: OVCAR-3 ovarian
IGROV1 ovarian = system: IGROV1 ovarian
U251 CNS = system: U251 CNS
ACHN renal = system: ACHN renal
SN12C renal = system: SN12C renal
NCI/ADR-RES ovarian = system: NCI/ADR-RES ovarian
DU-145 prostate = system: DU-145 prostate
MCF7 breast = system: MCF7 breast
MOLT-4 leukemia = system: MOLT-4 leukemia
RXF 393 renal = system: RXF 393 renal
NCI-H23 lung = system: NCI-H23 lung
SF-539 CNS = system: SF-539 CNS
BT-549 breast = system: BT-549 breast
SK-MEL-28 melanoma = system: SK-MEL-28 melanoma
HL-60(TB) leukemia = system: HL-60(TB) leukemia
PC-3 prostate = system: PC-3 prostate
OVCAR-8 ovarian = system: OVCAR-8 ovarian
SK-MEL-5 melanoma = system: SK-MEL-5 melanoma
LOX IMVI melanoma = system: LOX IMVI melanoma
COLO 205 colon = system: COLO 205 colon
M14 melanoma = system: M14 melanoma
786-0 renal = system: 786-0 renal
SW-620 colon = system: SW-620 colon

CCOc1cc2ncc(C#N)c(Nc3ccc(OCc4ccccn4)c(Cl)c3)c2cc1NC(=O)/C=C/CN(C)C
GI50 (TK-10 renal): < 11.7 nM and 12.7 nM | GI50 (MALME-3M melanoma): 610 nM | TGI (MALME-3M melanoma): 2590 nM | GI50 (UACC-62 melanoma): 1280 nM and 842 nM | TGI (UACC-62 melanoma): 3870 nM and > 10000 nM | GI50 (HCT-116 colon): 568 nM and 615 nM | TGI (HCT-116 colon): 2080 nM and 2050 nM | GI50 (EKVX NSCLC): 18.3 nM and 18.9 nM | TGI (EKVX NSCLC): 25600 nM and > 6840 nM | GI50 (RPMI-8226 leukemia): 1110 nM and 695 nM | TGI (RPMI-8226 leukemia): 4380 nM and 3790 nM | TGI (T-47D breast): 29700 nM and > 2610 nM | GI50 (CAKI-1 renal): 56.4 nM and 146 nM | TGI (CAKI-1 renal): 12500 nM and > 9090 nM | GI50 (CCRF-CEM leukemia): 1300 nM and 2440 nM | TGI (CCRF-CEM leukemia): 4950 nM and > 6110 nM | TGI (HOP-92 NSCLC): 22800 nM and 4060 nM | GI50 (MDA-MB-435): 902 nM and 770 nM | TGI (MDA-MB-435): 2520 nM and 5370 nM | GI50 (NCI-H226 lung): 6060 nM and 1690 nM | TGI (NCI-H226 lung): 26700 nM and > 7670 nM | GI50 (A549 NSCLC): 371 nM and 377 nM | TGI (A549 NSCLC): 1940 nM and > 10000 nM | GI50 (HCC-2998 colon): 1290 nM and > 2870 nM | TGI (HCC-2998 colon): 20100 nM and > 7880 nM | GI50 (HCT-15 colon): 475 nM and 404 nM | TGI (HCT-15 colon): 7970 nM and 5670 nM | GI50 (MDA-MB-231 breast): 1350 nM and 1480 nM | TGI (MDA-MB-231 breast): 2990 nM and 5630 nM | GI50 (UO-31 renal): 122 nM and 133 nM | TGI (UO-31 renal): 1570 nM and 2730 nM | GI50 (NCI-H522 lung): < 10 nM and 3.51 nM | TGI (NCI-H522 lung): 81.8 nM and 706 nM | GI50 (SNB-75 CNS): 915 nM and 362 nM | TGI (SNB-75 CNS): 5870 nM and > 5300 nM | GI50 (OVCAR-4 ovarian): 490 nM and 480 nM | TGI (OVCAR-4 ovarian): 2440 nM and > 10000 nM | GI50 (OVCAR-5 ovarian): 416 nM and 351 nM | TGI (OVCAR-5 ovarian): 7820 nM and > 10000 nM | GI50 (HS 578T breast): 540 nM and 351 nM | TGI (HS 578T breast): 66600 nM and > 5760 nM | GI50 (UACC-257 melanoma): 1410 nM and > 4550 nM | TGI (UACC-257 melanoma): 4270 nM and > 10000 nM | GI50 (SK-MEL-2 melanoma): 291 nM and 377 nM | TGI (SK-MEL-2 melanoma): 2510 nM and > 4630 nM | GI50 (SR leukemia): 413 nM | TGI (SR leukemia): > 3380 nM | GI50 (SK-OV-3 ovarian): < 10 nM and 2.18 nM | GI50 (SF-268 CNS): 563 nM | TGI (SF-268 CNS): > 10000 nM | GI50 (SF-295 CNS): 10900 nM and > 4590 nM | TGI (SF-295 CNS): 34700 nM and > 10000 nM | GI50 (SNB-19 CNS): 2520 nM | TGI (SNB-19 CNS): 22900 nM and > 10000 nM | GI50 (KM12 colon): 1520 nM and 1980 nM | TGI (KM12 colon): 5290 nM and > 7340 nM | GI50 (A498 renal): 124 nM and 153 nM | GI50 (HOP-62 NSCLC): 1220 nM and 1510 nM | TGI (HOP-62 NSCLC): 4440 nM and > 7810 nM | GI50 (HT29 colon): 491 nM and 502 nM | TGI (HT29 colon): 2050 nM and 2620 nM | GI50 (K-562 leukemia): 1410 nM and 606 nM | TGI (K-562 leukemia): 3270 nM and 3360 nM | GI50 (NCI-H460 lung): 1010 nM and 891 nM | TGI (NCI-H460 lung): 2880 nM and > 9380 nM | GI50 (OVCAR-3 ovarian): 1050 nM and 490 nM | TGI (OVCAR-3 ovarian): 20200 nM and > 6800 nM | GI50 (IGROV1 ovarian): 121 nM and 19.1 nM | TGI (IGROV1 ovarian): 5700 nM and 1840 nM | GI50 (U251 CNS): 899 nM and 1370 nM | TGI (U251 CNS): 2290 nM and > 10000 nM | GI50 (ACHN renal): 35.8 nM and 81.7 nM | TGI (ACHN renal): 4140 nM and > 10000 nM | GI50 (SN12C renal): 274 nM and 236 nM | TGI (SN12C renal): 4600 nM and > 10000 nM | GI50 (NCI/ADR-RES ovarian): 1170 nM and 1200 nM | TGI (NCI/ADR-RES ovarian): 4490 nM and > 8870 nM | GI50 (DU-145 prostate): 113 nM and 181 nM | TGI (DU-145 prostate): 1930 nM and 4730 nM | GI50 (MCF7 breast): 1650 nM and 927 nM | TGI (MCF7 breast): 3220 nM and > 6000 nM | GI50 (MOLT-4 leukemia): 672 nM and 463 nM | TGI (MOLT-4 leukemia): 20300 nM and > 5610 nM | GI50 (RXF 393 renal): 421 nM | TGI (RXF 393 renal): 2280 nM | GI50 (NCI-H23 lung): 2630 nM and > 4560 nM | TGI (NCI-H23 lung): 22200 nM and > 10000 nM | GI50 (SF-539 CNS): 4240 nM and > 4300 nM | TGI (SF-539 CNS): 11500 nM and > 9310 nM | GI50 (BT-549 breast): 1970 nM and 921 nM | TGI (BT-549 breast): 22000 nM and > 7850 nM | GI50 (SK-MEL-28 melanoma): 1410 nM and 2360 nM | TGI (SK-MEL-28 melanoma): 2960 nM and > 10000 nM | GI50 (HL-60(TB) leukemia): 855 nM and 822 nM | TGI (HL-60(TB) leukemia): 12900 nM and 2730 nM | GI50 (PC-3 prostate): 1930 nM and 1310 nM | TGI (PC-3 prostate): 8360 nM and > 9320 nM | GI50 (OVCAR-8 ovarian): 280 nM and 339 nM | TGI (OVCAR-8 ovarian): 1650 nM and > 4460 nM | GI50 (SK-MEL-5 melanoma): 1140 nM and 1820 nM | TGI (SK-MEL-5 melanoma): 6210 nM and 4020 nM | GI50 (LOX IMVI melanoma): 724 nM and 820 nM | TGI (LOX IMVI melanoma): 2290 nM and > 5730 nM | GI50 (COLO 205 colon): 1040 nM and 598 nM | TGI (COLO 205 colon): 24700 nM and > 5210 nM | GI50 (M14 melanoma): 392 nM and 380 nM | TGI (M14 melanoma): 1950 nM and 1580 nM | GI50 (786-0 renal): 755 nM | TGI (786-0 renal): 2810 nM | GI50 (SW-620 colon): 638 nM and 530 nM | TGI (SW-620 colon): 2410 nM and 3020 nM
